Read-outs that look alike come from different tables or passages of the source.
Biological target: T1, commercial GSK3beta (Millipore) (Homo sapiens, UniProt P49841)
T1 construct: purchased Millipore
Test: biochemical
Method: In a fourth protocol: 7.5 μM of prephosphorylated GS1 peptide and 10 μM ATP (containing 300,000 cpm of ^33P-ATP) were incubated in 50 mM Hepes, pH 7.2, 1 mM DTT, 1 mM MgCl2, 1 mM EGTA, 0.01% Tween 20 buffer for 90 minutes at room temperature in the presence of commercial GSK3beta (Millipore) (total reaction volume: 100 microliters).
Inhibitors were solubilised in DMSO (final solvent concentration in the reaction medium, 1%).
The reaction was stopped with 100 microliters of a solution made of 25 g polyphosphoric acid (85% P2O5), 126 ml 85% H3PO4, H2O to 500 ml and then diluted to 1:100 before use. An aliquot of the reaction mixture was then transferred to Whatman P81 cation exchange filters and rinsed with the solution described above. Incorporated ^33P radioactivity was determined by liquid scintillation spectrometry.
(Woodgett, J. R. (1989) Analytical Biochemistry 180, 237-241.

[1] = protocol 4: 7.5 μM GS1 peptide, 10 μM ATP, 90 minutes at room temperature, read-out: GSK3β inhibitory activity IC50

T1 sequence (P49841 whole entry): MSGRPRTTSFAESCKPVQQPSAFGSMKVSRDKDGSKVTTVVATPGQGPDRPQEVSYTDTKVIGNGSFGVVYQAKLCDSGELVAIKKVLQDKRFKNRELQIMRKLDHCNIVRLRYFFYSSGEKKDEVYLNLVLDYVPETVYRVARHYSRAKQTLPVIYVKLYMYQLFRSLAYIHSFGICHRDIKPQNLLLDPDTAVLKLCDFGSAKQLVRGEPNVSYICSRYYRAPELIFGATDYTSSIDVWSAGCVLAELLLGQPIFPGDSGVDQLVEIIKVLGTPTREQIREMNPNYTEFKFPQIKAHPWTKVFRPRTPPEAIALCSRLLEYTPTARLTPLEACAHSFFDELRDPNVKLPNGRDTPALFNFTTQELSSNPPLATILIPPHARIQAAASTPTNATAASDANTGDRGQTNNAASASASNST

Row | SMILES | IC50 [1] | IC50
1 | CSc1ncc(Br)c(C(=O)NC2COCCn3c2nc(-c2ccncn2)cc3=O)n1 (racemic) [compound 18, (+/−)-5-Bromo-2-methylsulfanyl-pyrimidine-4-carboxylic acid (4-oxo-2-pyrimidin-4-yl-5,6,8,9-tetrahydro-4H-7-oxa-1,4-a-diaza-benzocyclohepten-9-yl)-amide] | 0.052 µM | –
2 | O=C(NC1COCCn2c1nc(-c1ccncn1)cc2=O)c1ccccn1 (racemic) [compound 17, (+/−)-Pyridine-2-carboxylic acid (4-oxo-2-pyrimidin-4-yl-5,6,8,9-tetrahydro-4H-7-oxa-1,4-a-diaza-benzocyclohepten-9-yl)-amide] | – | 0.015 µM
3 | CSc1ncc(Cl)c(C(=O)NC2COCCn3c2nc(-c2ccncn2)cc3=O)n1 (racemic) [compound 15, (+/−)-5-Chloro-2-methylsulfanyl-pyrimidine-4-carboxylic acid (4-oxo-2-pyrimidin-4-yl-5,6,8,9-tetrahydro-4H-7-oxa-1,4-a-diaza-benzocyclohepten-9-yl)-amide] | 0.031 µM | –
4 | O=C(NC1COCCn2c1nc(-c1ccncn1)cc2=O)c1cc(F)cc2c1OCOC2 (racemic) [compound 12, (+/−)-6-Fluoro-4H-benzo[1,3]dioxine-8-carboxylic acid (4-oxo-2-pyrimidin-4-yl-5,6,8,9-tetrahydro-4H-7-oxa-1,4-a-diaza-benzocyclohepten-9-yl)-amide] | 0.005 µM | –

Source: patent publication US8501728B2, “Substituted heteroarylamide oxazepinopyrimidone derivatives” (priority 2008, dated 2013)
